In patent publication US11969476B2, “Antibody molecule-drug conjugates and uses thereof” (priority 2020, dated 2024):
Converted amounts (≈) assume the structure as drawn. Where two headings read alike, the source gives them in different places. Square brackets hold non-standard residues; d marks the D form. Ends that are not written are not given here. Peptide text beside a SMILES is read from it.

What was measured:
human red blood cells [1] = test system: human red blood cells
P. aeruginosa BAA-2112 = test system: P. aeruginosa BAA-2112; design: key: R = Resistant; S = Suspectible; I = Intermediate; NT = Note Tested; settings: strain BAA-2112, isolated from human sputum; cited from earlier work
P. aeruginosa BAA-2108 = test system: P. aeruginosa BAA-2108; design: key: R = Resistant; S = Suspectible; I = Intermediate; NT = Note Tested; settings: strain BAA-2108, isolated from human sputum; cited from earlier work
[2] = Cytotoxicity to mammalian cells; settings: human, 293T cells
Eco 25922 = experiment: MIC determination (CLSI, 2-fold serial dilutions); type: cell-based, E. coli
Experimental: (§1) Assessment of Antimicrobial Activity. […] All plates were placed at 37° C. overnight. After 18 hours the plates were read using a mirrored plate reader and reflected incandescent light. […] Wells at and above the MIC should appear void of growth when read by eye.

Pae 27853 = experiment: MIC determination (CLSI, 2-fold serial dilutions); type: cell-based, Pseudomonas aeruginosa
Experimental: as §1

Pae 39324 = experiment: MIC determination (CLSI, 2-fold serial dilutions); type: cell-based, Pseudomonas aeruginosa
Experimental: as §1

Sau 29213 = experiment: MIC determination (CLSI, 2-fold serial dilutions); type: cell-based, S. Aureus
Experimental: as §1

[3] = MIC in human serum (hsMIC) relative to MIC; type: cell-based; settings: NA, no active in human serum
Experimental: In an embodiment, the MIC is determined in the presence of phosphate-buffered saline (PBS). In an embodiment, the MIC or hsMIC is determined on per ADC basis. In an embodiment, the MIC or hsMIC is determined on per payload or antimicrobial peptide basis.

P. aeruginosa BAA-2114 = test system: P. aeruginosa BAA-2114; design: key: R = Resistant; S = Suspectible; I = Intermediate; NT = Note Tested; settings: strain BAA-2114, isolated from human sputum; cited from earlier work
P. aeruginosa BAA-2113 = settings: strain BAA-2113, isolated from human sputum; cited from earlier work
P. aeruginosa BAA-2111 = test system: P. aeruginosa BAA-2111; design: key: R = Resistant; S = Suspectible; I = Intermediate; NT = Note Tested; settings: strain BAA-2111, isolated from human sputum; cited from earlier work
P. aeruginosa BAA-2109 = test system: P. aeruginosa BAA-2109; design: key: R = Resistant; S = Suspectible; I = Intermediate; NT = Note Tested; settings: strain BAA-2109, isolated from human sputum; cited from earlier work
P. aeruginosa BAA-2110 = test system: P. aeruginosa BAA-2110; design: key: R = Resistant; S = Suspectible; I = Intermediate; NT = Note Tested; settings: strain BAA-2110, isolated from human sputum; cited from earlier work
293T = experiment: Cytotoxicity to mammalian cells; settings: in words
P. aeruginosa = experiment: MIC testing of antimicrobial peptides (screen); type: cell-based; settings: in words
Excerpt: Initially, a bioinformatics-driven workflow (mine public database of AMPs (YADAMP)→cluster AMPs by properties→evaluate activity and toxicity) was utilized to select AMPs for experimental characterization to identify potent payloads with a high therapeutic index (FIG. 7A). […] To facilitate identification of AMPs for use in an ADC, a screening strategy that clustered peptides based on their underlying physicochemical properties was implemented, followed by characterization of representative members from each cluster. Here YADAMP, a database of AMPs that contains over 2,500 sequences of peptides with reported antibacterial activity, was used. Clustering was performed by utilizing a K-means algorithm using calculated properties that have been reported to be relevant to antimicrobial activity (peptide length, predicted helicity, predicted hydropathy, percentage of select amino acids [Lys, Arg, Trp, Cys, His], and charge at pH7, pH5, and pH9). […] Once potent peptides with favorable characteristics were identified, the remaining members of the corresponding clusters were then selected for experimental characterization. […]
Assessment of Antimicrobial Activity. […] After 18 hours the plates were read using a mirrored plate reader and reflected incandescent light. […] Wells at and above the MIC should appear void of growth when read by eye.

human red blood cells [4] = experiment: Red blood cell hemolysis (MLC, PLC); settings: in words
[5] = in words, human serum
Experimental: Assessment of Serum Stability. […] Twenty μl of each test article was placed in a 2.0 ml round bottom microfuge tube. […] Assay tubes were placed at 37° C. in a rotating rack between time-points. […] Supernatant from each tube was collected and frozen at −20° C. for analysis. Samples were harvested and processed at various time-points up to 6 hours.

P. aeruginosa PA14 = experiment: Acute (immunocompetent) lung infection model; settings: immunocompetent mice, single intraperitoneal dose 15 mg/kg three hours post-infection, 100 hours
[6] = numbers in parentheses are molar equivalents

CC(C)(O/N=C(\C(=O)N[C@@H]1C(=O)N2C(C(=O)[O-])=C(C[n+]3ccccc3)CS[C@H]12)c1csc(N)n1)C(=O)O [Ceftazidime]
Hemolysis MLC/MIC (human red blood cells [1]): 16 | Hemolysis PLC/MIC (human red blood cells [1]): 8 | antibiotic resistance phenotype (P. aeruginosa BAA-2112): S | antibiotic resistance phenotype (P. aeruginosa BAA-2108): S | CC50 ([2]; Cytotox CC50, concentration at which 50% cytotoxicity of mammalian cells is observed): 550 µg/mL (≈ 1010 µM) | MIC Eco 25922 (Eco 25922): 0.25 μg,/ml | MIC Eco 25922, molar equivalents (Eco 25922; [6]): (0.5) | MIC Pae 27853 (Pae 27853): 1 μg,/ml | MIC Pae 27853, molar equivalents (Pae 27853; [6]): (1.8) | MIC Pae 39324 (Pae 39324): 1 μg,/ml | MIC Pae 39324, molar equivalents (Pae 39324; [6]): (1.8) | MIC Sau 29213 (Sau 29213): 4 μg,/ml | MIC Sau 29213, molar equivalents (Sau 29213; [6]): (7.3) | Human Serum hsMIC/MIC [3]: 1 | antibiotic resistance phenotype (P. aeruginosa BAA-2114): S | antibiotic resistance phenotype (P. aeruginosa BAA-2113): I/R | antibiotic resistance phenotype (P. aeruginosa BAA-2111): S | antibiotic resistance phenotype (P. aeruginosa BAA-2109): S | antibiotic resistance phenotype (P. aeruginosa BAA-2110): S

cathelicidin-BF
cytotoxic activity against mammalian cells (293T): inability to kill mammalian cells | potency against P. aeruginosa (P. aeruginosa): potent MIC values against multiple P. aeruginosa strains | hemolytic activity (human red blood cells [4]): low hemolytic activity

GGGHTASDAAAAAALTAANAAAAAAASMA [Peptide P292]
CC50 [2]: 250 µg/mL | MIC Eco 25922 (Eco 25922): >128 μg,/ml | MIC Pae 27853 (Pae 27853): >128 μg,/ml | MIC Pae 39324 (Pae 39324): >128 μg,/ml | MIC Sau 29213 (Sau 29213): >128 μg,/ml

CC[C@@H](C)[C@@H](NC(=O)[C@H](NC(=O)[C@@H](CCCNC(=N)N)NC(=O)[C@H]1CCCN1C(=O)[C@@H](CCCCN)NC(=O)[C@@H](CCCCN)NC(=O)[C@@H](Cc1ccccc1)NC(=O)[C@@H](Cc1ccccc1)NC(=O)[C@@H](CCC(=O)O)NC(=O)[C@@H](CCCCN)NC(=O)[C@@H](C)NC(=O)[C@@H](CCCNC(=N)N)NC(=O)[C@@H](CCCCN)NC(=O)[C@@H](CCCCN)NC(=O)[C@H](NC(=O)[C@@H](CO)NC(=O)[C@@H](CCCCN)NC(=O)[C@@H](CCCCN)NC(=O)[C@@H](CC(C)C)NC(=O)[C@@H](CCCCN)NC(=O)[C@@H](CCCNC(=N)N)NC(=O)[C@@H](Cc1ccccc1)NC(=O)[C@@H](Cc1ccccc1)NC(=O)[C@@H](CCCCN)NC(=O)CNC(=O)CNC(=O)CN)C(C)C)C(C)C)C(=O)NCC(=O)N[C@@H](C(=O)N[C@H](CO)C(=O)N[C@@H](C(=O)N1CCC[C@@H]1C(=O)N[C@H](Cc1ccccc1)C(=O)O)[C@H](C)CC)C(C)C [Peptide D297] (H-GGG[dK][dF][dF][dR][dK][dL][dK][dK][dS][dV][dK][dK][dR][dA][dK][dE][dF][dF][dK][dK][dP][dR][dV][dI]G[dV][dS][dI][dP][dF]-OH)
cytotoxic activity against mammalian cells (293T): low hemolytic and cytotoxic activity | serum stability [5]: stable in serum | serum stability ([5]; listed as (D)-P297): more stable than (L)-P297 | hemolytic activity (human red blood cells [4]): low hemolytic and cytotoxic activity

GGGKLLRKLKKSVKKRAKELLKKPRVIGVSIPL [Peptide P369]
potency against P. aeruginosa (P. aeruginosa): more potent peptide

B1: actoxumab-D297: sham-conjugate prepared using a non-P. aeruginosa targeting antibody (actoxumab) (conjugate, chains of the INN, looked up)
VH: QVQLVESGGGVVQPGRSLRLSCAASGFSFSNYGMHWVRQAPGKGLEWVALIWYDGSNEDYTDSVKGRFTISRDNSKNTLYLQMNSLRAEDTAVYYCARWGMVRGVIDVFDIWGQGTVVTVSS
VL: DIQMTQSPSSVSASVGDRVTITCRASQGISSWLAWYQHKPGKAPKLLIYAASSLQSGVPSRFSGSGSGTDFTLTISSLQPEDFATYYCQQANSFPWTFGQGTKVEIK
modifications: D297 payload; sham conjugate
survival (P. aeruginosa PA14): no survival benefit
